Like-named read-outs stand apart in the source and are kept apart here.
Tests used:
[1] = system: diabetes induced by streptozotocin; experiment: Experimental diabetes induced by streptozotocin; assay type: in vivo, male Wistar rats; conditions: for AcAc: Aceto Acetate
Experimental: The derivatives are then tested in order to define their biologic activity in experimental conditions of hyperglycemia induced both by food absence and by diabetes induced by streptozotocin. Hepatic glucokinase activity is examined in the experimental condition of food absence. Glycemia, insulinemia and the levels of Aceto Acetate (Ac.Ac.) are examined in the diabetes induced by streptozotocin.
10 male Wistar rats (200 g) are divided into 4 groups, the first group is composed by the controls, to the remaining groups streptozotocin is injected by intraperitoneal route (80 mg/kg). The third group is furthermore treated with biotin (3 mg/kg) by intraperitoneal route, and the fourth group with biotinyl ethanolamide (3 mg/kg) again by intraperitoneal route. The treatment is repeated for three days, then a blood sample is taken for analysis on the fifth day from the initial treatment.

[2] = system: hepatic glucokinase; experiment: Ex vivo hepatic glucokinasic activity, Experiment A; assay type: in vivo, Wistar rats; conditions: for Glucokinasic activity: 3 mg/kg i.p. after 24 hours without food, sacrifice after 6 hours, mean ± stan. deviation
Experimental: This experiment is carried out following to Chauhan et al. process (J. Biol. Chem. 266, 10035, 1991), according to this process, hepatic glucokinase in the rat, which activity is depressed by food absence is reactivated by the biotin action. 15 Wistar rats weighing on average 250 g are divided into three groups, the first one represent the controls, the second one is treated by intraperitoneal route with biotin (3 mg/kg) and the third group with biotinylethanolamine (3 mg/kg) again by intraperitoneal route. Rats are treated after 24 hours without food and after 6 hours are sacrificed by decapitation. Livers are homogenized in 5 volumes 50 mM Tris at pH 7, 0.15 M KCl, 5 mM EGTA, 4 mM MgCl₂, and 2 mM dithiothreitol and centrifugated at 100.000 x g for 60 minutes. The surnatant, frozen to -80 °C, is used for the analyses, after identifying proteins according to Bradford method (Anal. Biochem. 72, 248, 1976). Glucokinase is dosed by spectrophotometry according to Dakshinamurti et al. (Can. J. Biochem. 46, 75, 1968) with the following results: […]

[3] = system: hepatic glucokinase; experiment: Ex vivo hepatic glucokinasic activity, Experiment B; assay type: in vivo, Sprague Dawley rat; conditions: 2 mg/kg i.p., rats without food for 24 hours, 3 hours after the treatment
Experimental: Also this experiment, like the previous one, is carried out by following Chauhan et al. process (J. Biol. Chem. 266, 10035, 1991), according to this process, hepatic glucokinase in the rat, which activity is depressed by food absence and it is reactivated by the biotin action.
Sprague Dawley rat weighing on average 260 g left without food for 24 hours, are divided into 15 groups, each of 13 groups are respectively intraperitoneally treated with 2 mg/kg of one of the compounds of the present invention hereinbelow reported in Table 1 or with the same dosage of biotin, all these substances being previously dissolved in physiological solutions. The obtained results are compared with those of the two groups corresponding to normal rats feeded ad libitum and with untreated rats left without food for 24 hours, all the animals had free admission to water.
3 hours after the treatment the rats are sacrificed by cerebral displacement. […] The homogenates are centrifugated at 100.000 x g for 60 minutes.Their proteic concentration is determined according to the above mentioned Bradford method (Anal. Biochem. 72, 248, 1976).
Glucokinase activity is evaluated according to Dakshinamurti et al. (Can. J. Biochem. 46, 75, 1968), and expressed as arbitrary units /proteic concentration of the samples.

[4] = background statement, in words; cited from earlier work
[5] = system: diabetic patients; conditions: 16mg/die for 1 week, insulin treatment interrupted; cited from earlier work
[6] = system: genetically diabetic mice KK; conditions: 2mg/kg for 14 days; cited from earlier work
[7] = system: neuropathy; conditions: intramuscular for 6 weeks, with oral daily dose of 5 mg for about 2 years; cited from earlier work
[8] = solubility in organic solvents; assay type: physicochemical; conditions: organic solvent or mixture
[9] = solubility in water; assay type: physicochemical; conditions: for solubility in water: result in words
[10] = streptozotocin 80 mg/kg i.p., test substance 3 mg/kg i.p. for three days, blood sample on the fifth day
[11] = result in words, 3 mg/kg i.p., streptozotocin rats
[12] = aqueous buffer, in 0.1M phosphate buffer at pH 7.4

O=C(O)CCCC[C@@H]1SC[C@@H]2NC(=O)N[C@@H]21 [Biotin, biotin]
AcAc [1, 10]: 0 nmol/L
Glycemia [1, 11]: normalized
insulinemia [1, 11]: active
Glycemia [1, 10]: 7.4 ± 0.9 mmol/L
insulinemia [1, 10]: 25.1 ± 1.5 mU/l
Glucokinasic activity [2]: 3.96 ± 0.70 U./min/protein mg
glucokinase activity [3]: 3.662± 0.280 UA/mg proteins
solubility in water [4]: poorly soluble in water
hematic glucose rate [5]: significant reduction
glucose tolerance [6]: improved sensibly
conduction velocity at the level of the motor nerves and of the action sensory potentials [7]: slight improvement
subjective neurologic symptoms [7]: marked improvement

O=C(CCCC[C@@H]1SC[C@@H]2NC(=O)N[C@@H]21)NCCO [Example 1, N-β-biotinyl-ethanolamine]
solubility ([8]; in DMSO): > 10000 µg/mL
solubility ([9]; water): > 10000 µg/mL
AcAc [1, 10]: 0 nmol/L
Glycemia [1, 11]: normalized
insulinemia [1, 11]: active
Glycemia [1, 10]: 6.0 ± 0.5 mmol/L
insulinemia [1, 10]: 23.5 ± 1.8 mU/l
Glucokinasic activity [2]: 4.27 ± 0.45 U./min/protein mg
Glucokinasic activity compared with biotin ([2]; result in words, after 6 hours, 3 mg/kg i.p.): more active than biotin

CN=C(N)NCCC[C@H](NC(=O)CCCC[C@@H]1SC[C@@H]2NC(=O)N[C@@H]21)C(=O)O [Example 2, N-β-biotinyl-N^G-methyl-L-arginine]
solubility ([8]; in DMSO): > 10000 µg/mL
solubility ([9]; water): > 10000 µg/mL

O=C1N[C@H]2[C@H](CS[C@H]2CCCCC(=O)N2CCN(CCO)CC2)N1 [Example 3, N¹-β-biotinyl-N⁴-(2-hydroxyethyl) piperazine hydrochlorate]
solubility ([8]; in DMSO): > 10000 µg/mL
solubility ([9]; water): > 10000 µg/mL

O=C(CCCC[C@@H]1SC[C@@H]2NC(=O)N[C@@H]21)NCc1ccccc1 [Example 4, N-β-biotinyl-benzylamine]
solubility ([8]; in DMSO): > 10000 µg/mL
solubility ([8]; in ethanol): > 10000 µg/mL
solubility in water ([9]; water): poorly soluble

O=C(CCCC[C@@H]1SC[C@@H]2NC(=O)N[C@@H]21)NCCCCO [Example 5, N-β-biotinyl-4-amino-butanol]
solubility ([8]; in DMSO): > 10000 µg/mL
solubility ([9]; water): > 5000 µg/mL

O=C(CCCC[C@@H]1SC[C@@H]2NC(=O)N[C@@H]21)NCCNC(=O)CCCC[C@@H]1SC[C@@H]2NC(=O)N[C@@H]21 [Example 6, N,N'bis-(β-biotinyl)-ethylendiamine]
solubility ([8]; in hot DMSO): > 2000 µg/mL
solubility in water ([9]; water): poorly soluble

O=C(CCCC[C@@H]1SC[C@@H]2NC(=O)N[C@@H]21)N[C@@H](CO)C(=O)O [Example 7, N-β-biotinyl-L-serine]
solubility ([8]; in DMSO): > 10000 µg/mL
solubility [9, 12]: > 10000 µg/mL

CCCCNC(=O)CCCC[C@@H]1SC[C@@H]2NC(=O)N[C@@H]21 [Example 8, N-β-biotinyl-1-aminobutane]
solubility ([8]; in DMSO): > 10000 µg/mL
solubility in water ([9]; water): poorly soluble

O=C(CCCC[C@@H]1SC[C@@H]2NC(=O)N[C@@H]21)NC1CCCCC1 [Example 9, N-β-biotinyl-aminocyclohexane]
solubility ([8]; in DMSO): > 10000 µg/mL
solubility in water ([9]; water): poorly soluble

O=C(CCCC[C@@H]1SC[C@@H]2NC(=O)N[C@@H]21)NCc1ccc([N+](=O)[O-])cc1 [Example 10, N-β-biotinyl-4-nitrobenzylamine]
solubility ([8]; in DMSO): > 10000 µg/mL
solubility in water ([9]; water): poorly soluble

N=C(N)NCCC[C@H](NC(=O)CCCC[C@@H]1SC[C@@H]2NC(=O)N[C@@H]21)C(=O)O [Example 11, N-β-biotinyl-L-arginine]
solubility ([8]; in DMSO): > 10000 µg/mL
solubility ([9]; water): > 10000 µg/mL

O=C(CCCC[C@@H]1SC[C@@H]2NC(=O)N[C@@H]21)N[C@@H](CS)C(=O)O [Example 12, N-β-biotinyl-L-cysteine]
solubility ([8]; in DMSO): > 10000 µg/mL
solubility [9, 12]: > 10000 µg/mL

From patent publication EP0590563A1, “Biotin amides, a process for their preparation and therapeutical compositions containing them as the active principles for the treatment of diabetes and relative complicating diseases” (LIFEGROUP S.p.A., priority 1992, dated 1994)
